Data taken from patent US20240033277A1, “METHODS FOR TREATING AUTOIMMUNE DISEASES” (NEW YORK SOCIETY FOR THE RELIEF OF THE RUPTURED AND …, priority 2020, published 2024).
“Also recorded” adds a separate entry of the source.

Columns and labels:
TLR9-activated pDCs [1] = test: IFNA gene expression (Q-PCR) in pDCs activated with TLR9 agonist CpG-C274; assay type: cell-based, human; conditions: for IFNA (IFN-I) expression in TLR9-activated pDCs: UK5099 at 10, 20, and 40 μM or CB839 at 0.5 μM for 1 h, FIGS. 11B-11C; for IFNA expression in TLR9-activated pDCs under ER stress plus IRE1α inhibitor: TM or TG with MKC8866 at 1 μM or 4μ8c at 10 μM for 3 h, FIGS. 1F, 1G, 6C, 6D
TLR9-activated pDCs [2] = test: Secreted IFN-α (ELISA) from pDCs activated with TLR9 agonist; assay type: cell-based, human
pDCs [3] = test: Intracellular ATP in pDCs (ATP determination kit); assay type: cell-based, human; conditions: then TLR9 agonist
Protocol: (§1) Supernatants were removed, and cells were deproteinated in 0.5 ml of 0.5M MPA on ice for 5 min, followed by centrifugation at 10000×g for 5 min at 4° C. The deproteinated samples were neutralized with 25 μl of potassium carbonate, and then centrifugation at 10000×g for 5 min at 4° C. The supernatant was removed and deproteinated samples were used for pyruvate assay. For ATP determination, ATP determination kit (Sigma: A22066) was used in pDCs extracts as per the manufacture protocol.

[4] = system: IRE1α-XBP1 signaling in pDCs; test: XBP1 splicing (Q-PCR) in pDCs; assay type: cell-based, human
pDCs [5] = test: Serine biosynthesis gene expression (PHGDH, PSAT1, PSPH; Q-PCR) in pDCs; assay type: cell-based, human
TLR9-activated pDCs [6] = test: IFN-I gene and interferon-stimulated gene (ISG) expression in TLR9-activated pDCs (RNA-seq, Q-PCR); assay type: cell-based, human; conditions: CPI-613 at 100 & 200 μM for 1 h, then TLR9 agonist for 5 h; FIGS. 8A-8E
pDCs of SSc patients [7] = test: IFN-inducible gene expression in pDCs of patients with SSc; assay type: cell-based, human; conditions: CPI-613 at 200 μM for 13 h; FIG. 4G
pDCs of SSc patients [8] = test: Secreted CXCL4 (ELISA) from pDCs of patients with SSc; assay type: cell-based, human; conditions: CPI-613 at 200 μM for 13 h, FIG. 4H
pDCs [9] = test: Cell viability of pDCs by flow cytometry (DAPI); conditions: CPI-613 at 100 & 200 μM for 1 h, then TLR9 agonist for 5 h; FIG. 8F
Protocol: (§2) After 6-8 h of cell culture, pDCs were washed in PBS and then resuspending in FACS buffer and stained with DAPI. Cells were acquired by a fluorescence activated cell sorter (FACS) and analysis was performed using FlowJo analysis software. The gating strategy for viable cells involved progressively measuring total cells without uptake of DAPI.
(§3) Cell viability using Flow cytometry. After 6 h of cell culture, pDCs were washed in PBS and then resuspended in FACS buffer and stained with DAPI. Cells were acquired by a fluorescence activated cell sorter (FACS) and analysis was performed using FlowJo analysis software. The gating strategy for viable cells involved progressively measuring total cells without uptake of DAPI.

pDCs [10] = test: Intracellular pyruvate in pDCs (pyruvate detection kit); assay type: cell-based, human; conditions: then TLR9 agonist for 2.5 h, FIGS. 2K, 2L
Protocol: as §1, with “Intracellular pyruvate were determined in pDCs by pyruvate detection kit (Cayman chemicals: 700470) as per the manufacture protocol. pDC cultured in RPMI medium were washed in 1 ml of PBS and centrifuged at 10000×g for 5 min at 4° C. Supernatants” for “Supernatants”

pDCs [11] = test: UPR and ER stress gene expression in pDCs (RNA-seq, Q-PCR); assay type: cell-based, human
TLR9-activated pDCs [12] = test: IL-6 gene expression (Q-PCR) in TLR9-activated pDCs; assay type: cell-based, human; conditions: TM or TG for 3 h, then TLR9 agonist; quantified at 5 h; FIG. 5F
pDCs [13] = test: IFN-α expression in pDCs cultured with ER stress inducers alone; assay type: cell-based, human; conditions: TM at 3 μg/ml or TG at 0.5 μM, no TLR agonist; FIGS. 1A, 1B
pDCs [14] = system: pDCs
Protocol: as §2, §3

[15] = then CpG-C274 0.075 μM, 5 h, normalized to TLR9 agonist

`N#C/C(=C\c1cn(-c2ccccc2)c2ccccc12)C(=O)O` [UK5099] was tested, and the “IFNA (IFN-I) expression in TLR9-activated pDCs” value (TLR9-activated pDCs [1]; [15]) was “Inhibit”.

With `N[C@@H](CO)C(=O)O` [L-serine] the “IFN-α secretion by TLR9-activated pDCs” value (TLR9-activated pDCs [2]; L-serine 1 mg/ml for 1 h, then TLR9 agonist, 13 h, FIG. 2J) was “unaltered”.

For `COc1cc2c(C)c(CC(=O)N3CCOCC3)c(=O)oc2c(C=O)c1O` [MKC8866], the “IFNA expression in TLR9-activated pDCs under ER stress plus IRE1α inhibitor” value (TLR9-activated pDCs [1]; then TLR9 agonist, 5 h) was “prevented ER stress-driven inhibition of IFN-α”.

In the case of `O=C(Cc1cccc(OC(F)(F)F)c1)Nc1ccc(CCCCc2nnc(NC(=O)Cc3ccccn3)s2)nn1` [CB839], the “IFNA (IFN-I) expression in TLR9-activated pDCs” value (TLR9-activated pDCs [1]; [15]) is reported as “Inhibit”.

`CC(=O)C(=O)[O-].[Na+]` [pyruvate, sodium pyruvate] was tested, and the “IFNA expression by TLR9-activated pDCs under ER stress with metabolite supplementation” value (TLR9-activated pDCs [1]; TM or TG with sodium pyruvate 10 mM or α-KG 10 mM for 3 h, then TLR9 agonist, 5 h, FIGS. 3A-3D) was “sufficient to restore” and the “intracellular ATP levels under ER stress with metabolite supplementation” value (pDCs [3]; TM or TG with pyruvate 10 mM or α-KG 10 mM for 3 h, 2.5 h, FIGS. 3E-3H) was “restored”.

`O=C(O)CCCCC(CCSCc1ccccc1)SCc1ccccc1` (stereo not drawn) [CPI-613, 6,8-bis-benzylthio-octanoic acid] was tested, and the “IFNA expression in TLR9-activated pDCs” value (TLR9-activated pDCs [1]; CPI-613 at 100 μM & 200 μM for 1 h, then TLR9 agonist, 5 h, FIG. 3J) was “inhibited; also recorded: reduces”, the “secretion of IFN-α by TLR9-activated pDCs” value (TLR9-activated pDCs [2]; CPI-613 at 100 μM & 200 μM for 1 h, then TLR9 agonist, 13 h, FIG. 3K) was “inhibited” and the “induction of IFN-α by TLR9-stimulated pDCs in the presence of CXCL4” value (TLR9-activated pDCs [2]; CPI-613 at 200 μM for 1 h, then TLR9 agonist with CXCL4, 13 h ELISA, FIG. 4F) was “abrogated”. For the same molecule, the “effect on XBP1 splicing” value ([4]; CPI-613 at 100 & 200 μM for 1 h, then TLR9 agonist for 5 h, FIG. 8G) was “no effect”, the “effect on expression of PHGDH” value (pDCs [5]; CPI-613 at 100 & 200 μM for 1 h, then TLR9 agonist for 5 h, FIG. 8H) was “no effect” and the “intracellular ATP levels in TLR9-activated pDCs” value (pDCs [3]; CPI-613 at 100 μM & 200 μM for 1 h, 4 h, normalized to medium, FIG. 3L) was “reduced”. For the same molecule, the “expression of ISGs such as GBP1, IRF7, ISG54, MxB, CXCL10” value (TLR9-activated pDCs [6]) was “inhibited”, the “expression of IFN-inducible genes (GBP1, IRF7, ISG54, MxB, OAS2) by pDCs of SSc patients” value (pDCs of SSc patients [7]) was “drastically reduced” and the “secretion of CXCL4” value (pDCs of SSc patients [8]) was “no effect”. For the same molecule, the “effect on cell viability” value (pDCs [9]) was “no effect”.

For `Cc1ccc(OCCN(C)C(=O)Cn2cc(NC(=O)CCOc3ccccc3)cn2)cc1` [IXA4], the “IFNA expression in TLR9-activated pDCs” value (TLR9-activated pDCs [1]; IXA4 at 10 μM & 30 μM for 1 h, then TLR9 agonist, 5 h, FIG. 1I) was “abrogated”, the XBP1 splicing ([4]; IXA4 at 10 μM & 30 μM for 6 h, FIG. 1H) was “enhanced” and the PHGDH gene expression (pDCs [5]; IXA4 at 30 μM for 6 h, normalized to medium, FIG. 2F) was “conversely induced”.

With `Cc1cc(=O)oc2c(C=O)c(O)ccc12` [4μ8c] the “IFNA expression in TLR9-activated pDCs under ER stress plus IRE1α inhibitor” value (TLR9-activated pDCs [1]; then TLR9 agonist, 5 h) was “prevented ER stress-driven inhibition of IFN-α”.

In the case of `Cc1cc(C)nc(NC(=S)N2CCN(Cc3ccc(C(F)(F)F)cc3)CC2)c1` [NCT-503], the “IFNA expression by TLR9-activated pDCs facing ER stress plus PHGDH inhibitor” value (TLR9-activated pDCs [1]; TM or TG with NCT-503 at 2 μM for 3 h, then TLR9 agonist, 5 h, FIGS. 2H, 2I) is reported as “restored”, the “intracellular pyruvate levels in ER stressed-pDCs plus PHGDH inhibitor” value (pDCs [10]; TM or TG with NCT-503 at 2 μM for 3 h) is reported as “restored” and the “intracellular ATP levels under ER stress plus PHGDH inhibitor” value (pDCs [3]; tunicamycin with NCT-503 at 2 μM for 3 h, 2.5 h, FIG. 3I) is reported as “restored”.

`C/C=C(/C)C(=O)O[C@H]1C(C)=C2[C@H]([C@@H]1OC(=O)CCCCCCC)[C@@](C)(OC(C)=O)C[C@H](OC(=O)CCC)[C@@]1(O)[C@H]2OC(=O)[C@@]1(C)O` [thapsigargin, Thapsigargin] was tested, and the “expression levels of IFNA in response to TLR9” value (TLR9-activated pDCs [1]; TM 3 μg/ml or TG 0.5 μM for 3 h, then CpG-C274 0.075 μM, quantified at 5 h, normalized to TLR9 agonist, FIG. 1A) was “drastically inhibited”, the “induction of the unfolded protein response (UPR), RNA-seq” value (pDCs [11]; pDCs from HDs cultured 8 h, TM at 3 μg/ml or TG at 0.5 μM vs media alone, FIGS. 5A-5D) was “strong induction” and the “effect on IL-6 expression” value (TLR9-activated pDCs [12]) was “negligible effects”. The PHGDH gene expression (pDCs [5]; TM or TG for 3 h, followed by TLR9 agonist for 5 h, FIG. 2D) was “markedly induced”, the “serine biosynthesis gene expression (PHGDH, PSAT1, PSPH), irrespective of TLR9 signaling” value (pDCs [5]; TM or TG for 3 h, followed by TLR9 agonist for 5 h, FIGS. 2D, 7C, 7D) was “induction” and the “intracellular pyruvate levels in ER stressed-pDCs” value (pDCs [10]; TM or TG for 3 h) was “significantly reduced”. The “intracellular ATP levels under ER stress” value (pDCs [3]; TM or TG for 3 h, 2.5 h, normalized to medium, FIGS. 3E-3H) was “reduced”, the “capacity to express IFN-α with ER stress inducer alone” value (pDCs [13]) was “not impacted” and the effect on viability (pDCs [14]) was “negligible effects”.

B1: CXCL4: chemokine CXCL4 (Sigma: SRP3142) added to pDC culture at 3 μg/ml (protein, UniProt P02776 32-101, looked up)
Platelet factor 4: EAEEDGDLQCLCVKTTSQVRPRHITSLEVIKAGPHCPTAQLIATLKNGRKICLDLQAPLYKKIIKKLLES
With B1 the “IFN-α expression by TLR9-activated pDCs undergoing ER stress” value (TLR9-activated pDCs [1]; tunicamycin 3 h, then TLR9 agonist with CXCL4 3 μg/ml, 5 h, FIG. 10A) was “restore”, the “IFN-α secretion by TLR9-activated pDCs undergoing ER stress” value (TLR9-activated pDCs [2]; tunicamycin 3 h, then TLR9 agonist with CXCL4 3 μg/ml, 13 h, FIG. 4C) was “restore” and the “expression of UPR genes (XBP1, spliced XBP1, HSPA5, DNAJB9) facing ER stress” value (pDCs [11]; tunicamycin 3 h, then TLR9 agonist with CXCL4 3 μg/ml, 5 h, FIG. 4D) was “significant decrease”. The “PHGDH upregulation under ER stress” value (pDCs [5]; tunicamycin 3 h, then TLR9 agonist with CXCL4 3 μg/ml, 5 h, FIG. 4E) was “dampened”.
